These results are taken from article doi:10.1101/2023.01.30.526200v1, “The virus-encoded ion channel “viroporin” activity of the agnoprotein is required for BK Polyomavirus release from infected kidney cells” (biorxiv, 2023).

The target in assay [1] is T1, BKPyV agnoprotein (recombinant 10xHis BK agnoprotein) (Betapolyomavirus hominis, UniProt P03085).
T1 construct: full-length, N-terminal 10xHis tag kept (pET19b, codon optimised), expressed in E. coli, purified by Ni-NTA, cation exchange and C4, dissolved in DMSO; SDS-resistant oligomers (copy number undefined); reconstituted in PA/PC liposomes
The experiment in a line: carboxyfluorescein release from liposomes, endpoint fluorescence. Particulars: recombinant protein pre-incubated with compound 10 min at room temperature; PA/PC liposomes, HBS pH 7.4; compound concentration not in text. The assay is classed as biochemical.

Assay [2] has as its target T1, BKPyV agnoprotein (recombinant 10xHis BK agnoprotein). Described as above. The assay is classed as biochemical. Particulars: recombinant protein pre-incubated with compound 10 min at room temperature; PA/PC liposomes, HBS pH 7.4; 400 uM rimantadine.

T1 sequence (P03085 whole entry): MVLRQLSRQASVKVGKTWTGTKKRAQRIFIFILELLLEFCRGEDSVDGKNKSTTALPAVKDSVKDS

With `CCCCCCCCCN1C[C@H](O)[C@@H](O)[C@H](O)[C@H]1CO` [NN-DNJ], in assay [1], the “reduction in CF release” value is “Addition of NN-DNJ also led to a significant reduction in agnoprotein mediated CF release”. As to `CC(N)C12CC3CC(CC(C3)C1)C2` (centres unmarked) [rimantadine], the “% reduction in channel activity at 400 uM” value in assay [2] is recorded as ~ 50%.
